Measured values reported in patent US20250002448A1, “ALLOSTERIC MODULATORS OF NICOTINIC ACETYLCHOLINE RECEPTORS” (MERCK SHARP & DOHME LLC, priority 2021, published 2025).
Where two headings read alike, the source gives them in different places.

Molecular target: T1, human a7 nAChR (Homo sapiens, UniProt P36544)
T1 construct: catalogue number not given
Test: automated patch-clamp electrophysiology functional assay (Assay A), IonFlux HT
Format: cell-based
Conditions: HEK cell line stably expressing human RIC-3 and human a7, whole-cell population patch, 40 μM acetylcholine
Description: The a7 nAChR positive allosteric modulator (PAM) activity of the present compounds may be tested using assays known in the art. The a7 nAChR PAMs described herein have activities in an automated patch-clamp electrophysiology functional assay as described in the examples. The assay was performed using the lonFlux HT in a whole-cell, population patch configuration. See Golden et al. Assay Drug Dev. Technol. (2011) 9:608-619. The compounds were assessed for their ability to modulate the function of the human a7 nAChR stably expressed in a HEK cell line both in the presence, and in the absence of the natural a7 agonist acetylcholine. By performing a series of such measurements at different concentrations, the effective concentration of the a7 nAChR PAMs (EC50) was determined. See Spencer et al. Assay Drug Dev. Technol. (2012) 10:313-324.
Direct activation of a7 (agonism), and potentiation of acetylcholine-evoked a7 currents was determined as follows:
Automated patch-clamp electrophysiology was performed using the IonFlux HT (Fluxion Biosciences Inc., San Francisco, CA) in the whole-cell, population patch configuration. Test compounds were assessed for their ability to modulate the function of the a7 nicotinic acetylcholine receptor both in the presence, and in the absence of the natural a7 agonist acetylcholine. A HEK cell line stably expressing both human RIC-3 and human a7 (PrecisION hnAChR a7/RIC-3. Eurofins Pharma, St. Charles, MO) was cultured in 175 cm^2 triple-layer tissue culture flasks to no more than 90% confluency in DMEM/F-12 growth media supplemented with 10% heat-inactivated fetal bovine serum, 1% non-essential amino acids. 0.625 μg/mL Puromycin, and 400 μg/mL Geneticin. Immediately prior to assay, cells were detached by first aspirating growth media, rinsing with Dulbecco's phosphate buffered saline, and then adding 10 mL of Accutase (Innovative Cell Technologies, San Diego, CA) to the flask and then incubating at 37° C. for 5 minutes. Detached cells were then recovered by the addition of 40 mL of CHO-serum-free media supplemented with 25 mM HEPES, and rocked gently in a 50 ml conical tube for 20 minutes prior to patch-clamp assay. After recovery, cells were pelleted by centrifugation at 1.000 RPM for 1 minute in a compact bench top centrifuge: recovery media was aspirated and cells were resuspended in external recording solution (150 mM NaCl, 5 mM KCl, 2 mM CaCl2), 1 mM MgCl2, 10 mM HEPES, 12 mM dextrose) to a density of 5.0×10^6 cells/mL. The cell suspension was added to the cell inlet wells on an IonFlux HT population patch plate which had previously been rinsed and primed with deionized H2O. Test compounds were serially diluted in DMSO and then resuspended to the final test concentration in external recording solution, with, or without 40 μM acetylcholine added to the external recording solution: test compounds were then transferred to the IonFlux HT population patch plate. Internal recording solution (110 mM TrisPO4, 28 mM TrisBase, 0.1 mM CaCl2), 2 mM MgCl2, 11 mM EGTA, 4 mM MgATP) was added to the internal recording solution inlet wells on the IonFlux HT patch plate previously loaded with cells and test compounds, and the plate loaded into the lonFlux HT instrument. A protocol was executed on the IonFlux HT to trap the cells, break into the cells, and establish the whole-cell recording configuration: cells were voltage-clamped at a holding potential of −60 mV for the duration of the experiment, all experiments were conducted at room temperature, and the IonFlux HT injection pressure was 8 psi for solution applications. Upon establishing the whole-cell configuration, external recording solution was perfused into the recording chambers for 120 seconds and then 40 μM acetylcholine was applied for 1 second and immediately washed off with external recording solution for 60 seconds. […]

T1 sequence (P36544 23-502): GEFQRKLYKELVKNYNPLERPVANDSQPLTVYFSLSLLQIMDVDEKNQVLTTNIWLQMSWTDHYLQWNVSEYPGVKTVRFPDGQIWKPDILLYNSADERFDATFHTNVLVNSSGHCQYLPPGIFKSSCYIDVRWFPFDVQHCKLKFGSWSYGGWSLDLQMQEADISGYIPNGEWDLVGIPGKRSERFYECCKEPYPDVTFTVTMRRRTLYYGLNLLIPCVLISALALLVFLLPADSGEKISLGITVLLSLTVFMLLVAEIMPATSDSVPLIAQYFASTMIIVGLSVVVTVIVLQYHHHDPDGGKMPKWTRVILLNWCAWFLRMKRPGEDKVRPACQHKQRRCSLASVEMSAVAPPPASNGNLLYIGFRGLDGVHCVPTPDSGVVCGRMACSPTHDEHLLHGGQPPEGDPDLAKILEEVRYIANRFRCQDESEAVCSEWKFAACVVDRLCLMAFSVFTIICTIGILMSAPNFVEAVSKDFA

Work on CCOc1ccc([C@H](COC)NC(=O)C2CC23CCc2ccccc23)cc1 (mixture of isomers) [Example 1, N-[(1R)-1-(4-Ethoxyphenyl)-2-Methoxy-Ethyl[-2′,3′-Dihydrospiro]Cyclopropane-1,1′-Indene]-2-Carboxamide, Mixture a] yielded an EC50 (read-out: a7 nAChR EC50) of 4.5 µM and an EC50 (read-out: α7 nAChR Potency) of 0.5 to 5 µM.

In the case of CCOc1ccc([C@H](COC)NC(=O)C2CC23CCc2ccccc23)cc1 (mixture of isomers) [Example 2, N-[(1R)-1-(4-Ethoxyphenyl)-2-Methoxy-Ethyl]-2′,3′-Dihydrospiro[Cyclopropane-1,1′-Indene]-2-Carboxamide, Mixture B], the EC50 (read-out: a7 nAChR EC50) is reported as 0.42 µM and the EC50 (read-out: α7 nAChR Potency) is reported as 0.1 to 0.5 µM.

For O=C(NC1(c2ccc(F)cc2)COC1)C1CC12CCc1ccccc12 (racemic) [Example A1, N-[3-(4-Fluorophenyl)oxetan-3-yl]-2′, 3′-dihydrospiro[cyclopropane-1,1′-indene]-2-carboxamide], the EC50 (read-out: a7 nAChR EC50) was 3.2 µM and the EC50 (read-out: α7 nAChR Potency) was 0.5 to 5 µM.

For COc1ccc(C2(NC(=O)[C@@H]3C[C@]34COc3ccc(F)cc34)CC2)cn1 (relative stereo) [Example A16, cis-5-Fluoro-N-[1-(6-methoxypyridin-3-yl)cyclopropyl]-2H-spiro[1-benzofuran-3,1′-cyclopropane]-2′-carboxamide], the EC50 (read-out: α7 nAChR Potency) was 0.5 to 5 µM.

With CCOc1ccc([C@H](COC)NC(=O)C2CC23CCc2ccc(F)cc23)cc1 (single isomer, unassigned) [Example A2] the EC50 (read-out: a7 nAChR EC50) was 1.6 µM and the EC50 (read-out: α7 nAChR Potency) was 0.5 to 5 µM.

Molecule CCOc1ccc([C@H](COC)NC(=O)C2CC23CCc2ccc(F)cc23)cc1 (single isomer, unassigned) [Example A3] has an EC50 (read-out: a7 nAChR EC50) of 0.7 µM and an EC50 (read-out: α7 nAChR Potency) of 0.5 to 5 µM.

CCOc1ccc([C@H](COC)NC(=O)C2CC23CCCc2ccccc23)cc1 (single isomer, unassigned) [Example B1] showed an EC50 (read-out: a7 nAChR EC50) of 0.74 µM and an EC50 (read-out: α7 nAChR Potency) of 0.5 to 5 µM.

CCOc1ccc([C@H](COC)NC(=O)C2CC23CCc2cc(F)ccc23)cc1 (single isomer, unassigned; diastereomer b) [Example 4] was tested, and the EC50 (read-out: a7 nAChR EC50) was 0.59 µM and the EC50 (read-out: α7 nAChR Potency) was 0.5 to 5 µM.

CCOc1ccc([C@H](COC)NC(=O)C2CC23COc2ccc(F)cc23)cc1 (single isomer, unassigned; diastereomer d) [Example 5] was tested, and the EC50 (read-out: a7 nAChR EC50) was 0.48 µM and the EC50 (read-out: α7 nAChR Potency) was 0.1 to 0.5 µM.

With CCOc1ccc([C@H](COC)NC(=O)C2CC23COc2ccc(F)cc23)cc1 (stereo in doubt) [Example A10, cis-N-[(1R)-1-(4-Ethoxyphenyl)-2-methoxyethyl]-5-fluoro-2H-spiro[I-benzofuran-3,1′-cyclopropane]-2′-carboxamide] the EC50 (read-out: α7 nAChR Potency) was 0.5 to 5 µM.

CCOc1ccc([C@@H](NC(=O)C2CC23COc2ccc(F)cc23)C(F)F)cn1 (stereo in doubt) [Example A12, cis-N-[(1R)-1-(6-Ethoxypyridin-3-yl)-2,2-difluoroethyl]-5-fluoro-2H-spiro[1-benzofuran-3,1′-cyclopropane]-2′-carboxamide] showed an EC50 (read-out: a7 nAChR EC50) of 3 µM and an EC50 (read-out: α7 nAChR Potency) of 0.5 to 5 µM.

Molecule CCOc1ccc([C@H](CF)NC(=O)C2CC23COc2ccc(F)cc23)cn1 (stereo in doubt) [Example A13, cis-N-[(1R)-1-(6-Ethoxypyridin-3-yl)-2-fluoroethyl]-5-fluoro-2H-spiro[1-benzofuran-3,1′-cyclopropane]-2′-carboxamide] has an EC50 (read-out: a7 nAChR EC50) of 0.79 µM and an EC50 (read-out: α7 nAChR Potency) of 0.5 to 5 µM.

O=C(N[C@@H](C(F)F)C1CCCCC1)C1CC12COc1ccc(F)cc12 (stereo in doubt) [Example A14, cis-N-[(1R)-1-Cyclohexyl-2,2-difluoroethyl]-5-fluoro-2H-spiro[1-benzofuran-3,1′-cyclopropane]-2′-carboxamide] gave an EC50 (read-out: α7 nAChR Potency) of 0.5 to 5 µM.

Molecule O=C(N[C@@H](CO)C1CCCCC1)C1CC12COc1ccc(F)cc12 (stereo in doubt) [Example A15, cis-N-[ (1R)-1-Cyclohexyl-2-hydroxyethyl]-5-fluoro-2H-spiro[1-benzofuran-3,1′-cyclopropane]-2′-carboxamide] has an EC50 (read-out: a7 nAChR EC50) of 0.77 µM and an EC50 (read-out: α7 nAChR Potency) of 0.5 to 5 µM.

In the case of CCOc1ccc([C@H](COC)NC(=O)[C@@H]2C[C@]23CCc2ccccc23)cc1 [Example 3, (1R,2R)-N-[ (1R)-1-(4-Ethoxyphenyl)-2-Methoxy-Ethyl]-2′,3′-Dihydrospiro[Cyclopropane-1,1′-Indene]-2-Carboxamide], the EC50 (read-out: a7 nAChR EC50) is reported as 0.69 µM and the EC50 (read-out: α7 nAChR Potency) is reported as 0.5 to 5 µM.

O=C(N[C@@H](CO)C1CCCCC1)C1CC12CCc1ccc(F)cc12 (stereo partly drawn) [Example A4, N-[(1R)-1-Cyclohexyl-2-hydroxyethyl]-6′-fluoro-2′, 3′-dihydrospiro[cyclopropane-1,1′-indene]-2-carboxamide] was tested, and the EC50 (read-out: a7 nAChR EC50) was 1.2 µM and the EC50 (read-out: α7 nAChR Potency) was 0.5 to 5 µM.

With CCOc1ccc([C@H](CO)NC(=O)C2CC23CCc2ccc(F)cc23)cn1 (stereo partly drawn) [Example A5, N-[(1R)-1-(6-Ethoxypyridin-3-yl)-2-hydroxyethyl]-6′-fluoro-2′, 3′-dihydrospiro[cyclopropane-1,1′-indene]-2-carboxamide] the EC50 (read-out: a7 nAChR EC50) was 1.4 µM and the EC50 (read-out: α7 nAChR Potency) was 0.5 to 5 µM.

O=C(NC1(c2ccc(F)cc2)COC1)C1CC12CCc1ccc(F)cc12 (centres unmarked) [Example A6] showed an EC50 (read-out: α7 nAChR Potency) of 0.5 to 5 µM.

For O=C(N[C@@H](C(F)F)C1CCCCC1)C1CC12CCc1ccc(F)cc12 (stereo partly drawn) [Example A7, N-[(1R)-1-Cyclohexyl-2,2-difluoroethyl]-6′-fluoro-2′, 3′-dihydrospiro[cyclopropane-1,1′-indene]-2-carboxamide], the EC50 (read-out: α7 nAChR Potency) was 0.5 to 5 µM.

For O=C(N[C@@H](CO)C1CCCCC1)C1CC12COc1ccccc12 (some centres unmarked) [Example A8], the EC50 (read-out: a7 nAChR EC50) was 0.63 µM and the EC50 (read-out: α7 nAChR Potency) was 0.5 to 5 µM.

With O=C(NC1(c2ccc(F)cc2)COC1)C1CC12COc1ccccc12 (centres unmarked) [Example A9, N-[3-(4-Fluorophenyl)oxetan-3-yl]-2H-spiro[1-benzofuran-3,1′-cyclopropane]-2′-carboxamide] the EC50 (read-out: a7 nAChR EC50) was 1.1 µM and the EC50 (read-out: α7 nAChR Potency) was 0.5 to 5 µM.

CCOc1ccc(C(CO)NC(=O)C2CC23COc2ccc(F)cc23)cn1 [Example A11, cis-N-[ (1R)-1-(6-Ethoxypyridin-3-yl)-2-hydroxyethyl]-5-fluoro-2H-spiro[1-benzofuran-3,1′-cyclopropane]-2′-carboxamide] gave an EC50 (read-out: a7 nAChR EC50) of 5.8 µM and an EC50 (read-out: α7 nAChR Potency) of 5 to 50 µM.

Work on COc1cc(C2(NC(=O)C3CC34COc3ccc(F)cc34)CC2)ccn1 (stereo not drawn) [Example A17, cis-S-Fluoro-N-[1-(2-methoxypyridin-4-vl)cyclopropyl]-2H-spiro[1-benzofuran-3,1′-cyclopropane]-2′-carboxamide] yielded an EC50 (read-out: a7 nAChR EC50) of 2.3 µM and an EC50 (read-out: α7 nAChR Potency) of 0.5 to 5 µM.
